Experimental data reported in patent US11000033B2, “Ketone or oxime compound, and herbicide” (NISSAN CHEMICAL CORPORATION, priority 2014, dated 2021).

Tests used:
Assay type in all cases: in vivo
Alopecurus myosuroides [1] = assay: Test Example 4: herbicidal effect by soil treatment (symbol J); settings: for Herbicidal effect grade, J: Alopecurus myosuroides: application herbicide amount 320 g/ha
Procedure, shortened: (§1)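 Seeds were sown in sterilized diluvial soil, covered with about 1.5 cm of soil, and the soil surface was sprayed with a water-diluted emulsion of the compound at a predetermined rate. Plants grew in a greenhouse at 25° C. to 30° C.; effects were scored visually 3 weeks after application.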

wheat = assay: Test Example 4: effect on crop by soil treatment (symbol e); settings: for Effect on crop grade, e: wheat: application herbicide amount 320 g/ha
Procedure, shortened: (§2)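 Grown at 25° C. to 30° C. in a greenhouse, the crops came from seed sown spot-wise in sterilized diluvial soil under roughly 1.5 cm of covering soil.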

Lolium multiflorum Lam. [2] = assay: Test Example 5: herbicidal effect by foliage application, plastic box (symbol K); settings: 320 g/ha, 3 weeks after application
Procedure, shortened: (§3)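 Effect is rated 3 weeks after a foliar spray of water-diluted emulsion concentrate at a predetermined herbicide amount. Plants had grown 14 days in a 25° C. to 30° C. greenhouse from seed in sterilized diluvial soil.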

[3] = tested on: Echinochloa oryzacola Vasing.; assay: Test Example 1: herbicidal activity, application before weed generation in submerged conditions (symbol A); settings: application herbicide amount 320 g/ha
Procedure, shortened: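 0–5 visual score, 3 wk post-application. Submerged pots, alluvial soil, water 4 cm; seeds sown mixed, rice at 2.5 leaves transplanted. Emulsion diluted to predetermined dose, applied to water surface at sowing. 25–30 °C greenhouse.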

Setaria viridis [4] = assay: Test Example 4: herbicidal effect by soil treatment (symbol G); settings: for Herbicidal effect grade, G: Setaria viridis: application herbicide amount 320 g/ha
Procedure, shortened: as §1

Veronica persica [5] = assay: Test Example 5: herbicidal effect by foliage application, plastic box (symbol R); settings: 320 g/ha, 3 weeks after application
Procedure, shortened: as §3

Cyperus difformis = assay: Test Example 3: herbicidal effect by foliage application, Wagner pot (symbol E); settings: application herbicide amount 320 g/ha; for E herbicidal effect grade: Table 24
Procedure, shortened: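 Weeds and rice were sown in alluvial soil under 0.1–0.5 cm of standing water and grown for 14 days in a 25–30 °C greenhouse. An emulsion of the compound, diluted in water to a set dose, was sprayed evenly onto the foliage. Effect was scored against fixed criteria 3 weeks after treatment.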

soybean [6] = assay: Test Example 5: effect on crop by foliage application, plastic box (symbol d); settings: 320 g/ha, 3 weeks after application
Procedure, shortened: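 Seeds were sown in spots in sterilized diluvial soil held in a plastic box 21 cm × 13 cm × 7 cm deep, covered with about 1.5 cm of soil, and grown in a greenhouse at 25° C. to 30° C.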

Amaranthus retroflexus = assay: Test Example 5: herbicidal effect by foliage application, plastic box (symbol N); settings: 320 g/ha, 3 weeks after application
Procedure, shortened: as §3

Apera spica-venti = assay: Test Example 4: herbicidal effect by soil treatment (symbol L); settings: for Herbicidal effect grade, L: Apera spica-venti: application herbicide amount 320 g/ha
Procedure, shortened: as §1

Alopecurus myosuroides [7] = assay: Test Example 5: herbicidal effect by foliage application, plastic box (symbol J); settings: 320 g/ha, 3 weeks after application
Procedure, shortened: as §3

Veronica persica [8] = assay: Test Example 4: herbicidal effect by soil treatment (symbol R); settings: for Herbicidal effect grade, R: Veronica persica: application herbicide amount 320 g/ha
Procedure, shortened: as §1

Setaria viridis [9] = assay: Test Example 5: herbicidal effect by foliage application, plastic box (symbol G); settings: 320 g/ha, 3 weeks after application
Procedure, shortened: as §3

Avena fatua = assay: Test Example 5: herbicidal effect by foliage application, plastic box (symbol I); settings: 320 g/ha, 3 weeks after application
Procedure, shortened: as §3

Lolium multiflorum Lam. [10] = assay: Test Example 4: herbicidal effect by soil treatment (symbol K); settings: for Herbicidal effect grade, K: Lolium multiflorum Lam.: application herbicide amount 320 g/ha
Procedure, shortened: as §1

corn = assay: Test Example 4: effect on crop by soil treatment (symbol c); settings: for Effect on crop grade, c: corn: application herbicide amount 320 g/ha
Procedure, shortened: as §2

soybean [11] = assay: Test Example 4: effect on crop by soil treatment (symbol d); settings: for Effect on crop grade, d: soybean: application herbicide amount 320 g/ha
Procedure, shortened: as §2

rice = assay: Test Example 4: effect on crop by soil treatment (symbol b); settings: for Effect on crop grade, b: directly sowed rice plant: application herbicide amount 320 g/ha
Procedure, shortened: as §2

| Structure (SMILES) | Herbicidal effect grade, J: Alopecurus myosuroides (Alopecurus myosuroides [1]) | Effect on crop grade, e: wheat (wheat) | K: Lolium multiflorum Lam., herbicidal effect grade (Lolium multiflorum Lam. [2]) | A (Echinochloa oryzacola Vasing.) herbicidal effect grade [3] | Herbicidal effect grade, G: Setaria viridis (Setaria viridis [4]) | R: Veronica persica, herbicidal effect grade (Veronica persica [5]) | E herbicidal effect grade (Cyperus difformis) | d: soybean, effect on crop grade (soybean [6]) | N: Amaranthus retroflexus, herbicidal effect grade (Amaranthus retroflexus) | Herbicidal effect grade, L: Apera spica-venti (Apera spica-venti) | J: Alopecurus myosuroides, herbicidal effect grade (Alopecurus myosuroides [7]) | Herbicidal effect grade, R: Veronica persica (Veronica persica [8]) | G: Setaria viridis, herbicidal effect grade (Setaria viridis [9]) | I: Avena fatua, herbicidal effect grade (Avena fatua) | Herbicidal effect grade, K: Lolium multiflorum Lam. (Lolium multiflorum Lam. [10]) | Effect on crop grade, c: corn (corn) | Effect on crop grade, d: soybean (soybean [11]) | Effect on crop grade, b: directly sowed rice plant (rice) | further results |
| --- | --- | --- | --- | --- | --- | --- | --- | --- | --- | --- | --- | --- | --- | --- | --- | --- | --- | --- | --- |
| CCCCCCCCS(=O)(=O)OC1=C(c2c(C)cc(C)cc2C)C(=O)C(CC(C)=NOC)C1 (stereo not drawn) [1-107] |  |  |  |  |  |  |  |  |  |  |  |  |  |  |  |  |  |  | J: Alopecurus myosuroides, herbicidal effect grade (Alopecurus myosuroides [1]; 320 g/ha): 5 (Herbicidal ratio of 90% or more (almost completely withered)); e: wheat, effect grade on crop (wheat; 320 g/ha): 0 (Herbicidal ratio of 5% or lower (almost no effect)); K: Lolium multiflorum Lam., herbicidal effect (criteria 0-5) (Lolium multiflorum Lam. [2]): 5 (Herbicidal ratio of 90% or more (almost completely withered)); Herbicidal effect grade, A: Echinochloa oryzacola Vasing. [3]: 5 (Herbicidal ratio of 90% or more (almost completely withered)); G: Setaria viridis, herbicidal effect grade (Setaria viridis [4]; 320 g/ha): 3 (Herbicidal ratio of 40% or higher and lower than 70%); R: Veronica persica, herbicidal effect (criteria 0-5) (Veronica persica [5]): 0 (Herbicidal ratio of 5% or lower (almost no effect)); herbicidal effect on E, grade 0-5 (Cyperus difformis): 5 (Herbicidal ratio of 90% or more (almost completely withered)); d: soybean, effect on crop (criteria 0-5) (soybean [6]): 3 (Herbicidal ratio of 40% or higher and lower than 70%); N: Amaranthus retroflexus, herbicidal effect (criteria 0-5) (Amaranthus retroflexus): 0 (Herbicidal ratio of 5% or lower (almost no effect)); L: Apera spica-venti, herbicidal effect grade (Apera spica-venti; 320 g/ha): 5 (Herbicidal ratio of 90% or more (almost completely withered)); J: Alopecurus myosuroides, herbicidal effect (criteria 0-5) (Alopecurus myosuroides [7]): 5 (Herbicidal ratio of 90% or more (almost completely withered)); R: Veronica persica, herbicidal effect grade (Veronica persica [8]; 320 g/ha): 0 (Herbicidal ratio of 5% or lower (almost no effect)); G: Setaria viridis, herbicidal effect (criteria 0-5) (Setaria viridis [9]): 5 (Herbicidal ratio of 90% or more (almost completely withered)); I: Avena fatua, herbicidal effect (criteria 0-5) (Avena fatua): 5 (Herbicidal ratio of 90% or more (almost completely withered)); K: Lolium multiflorum Lam., herbicidal effect grade (Lolium multiflorum Lam. [10]; 320 g/ha): 5 (Herbicidal ratio of 90% or more (almost completely withered)); c: corn, effect grade on crop (corn; 320 g/ha): 0 (Herbicidal ratio of 5% or lower (almost no effect)); d: soybean, effect grade on crop (soybean [11]; 320 g/ha): 0 (Herbicidal ratio of 5% or lower (almost no effect)); b: directly sowed rice plant, effect grade on crop (rice; 320 g/ha): 5 (Herbicidal ratio of 90% or more (almost completely withered)) |
| CC#Cc1cc(C)c(C2=C(O)CC(CC(C)=NOCC(F)(F)F)C2=O)c(C)c1 (stereo not drawn) [9-011] | 5 (Herbicidal ratio of 90% or more (almost completely withered)) | 4 (Herbicidal ratio of 70% or higher and lower than 90%) | 5 (Herbicidal ratio of 90% or more (almost completely withered)) | 5 (Herbicidal ratio of 90% or more (almost completely withered)) | 5 (Herbicidal ratio of 90% or more (almost completely withered)) | 3 (Herbicidal ratio of 40% or higher and lower than 70%) | 5 (Herbicidal ratio of 90% or more (almost completely withered)) | 2 (Herbicidal ratio of 20% or higher and lower than 40%) | 2 (Herbicidal ratio of 20% or higher and lower than 40%) | 5 (Herbicidal ratio of 90% or more (almost completely withered)) | 5 (Herbicidal ratio of 90% or more (almost completely withered)) | 0 (Herbicidal ratio of 5% or lower (almost no effect)) | 5 (Herbicidal ratio of 90% or more (almost completely withered)) | 5 (Herbicidal ratio of 90% or more (almost completely withered)) | 5 (Herbicidal ratio of 90% or more (almost completely withered)) | 5 (Herbicidal ratio of 90% or more (almost completely withered)) | 0 (Herbicidal ratio of 5% or lower (almost no effect)) | 5 (Herbicidal ratio of 90% or more (almost completely withered)) |  |
| COCCON=C(C)CC1CC(O)=C(c2c(C)cc(-n3cc(Cl)cn3)cc2C)C1=O (stereo not drawn) [9-016] | 5 (Herbicidal ratio of 90% or more (almost completely withered)) | 0 (Herbicidal ratio of 5% or lower (almost no effect)) | 5 (Herbicidal ratio of 90% or more (almost completely withered)) | 5 (Herbicidal ratio of 90% or more (almost completely withered)) | 5 (Herbicidal ratio of 90% or more (almost completely withered)) | 1 (Herbicidal ratio of 5% or higher and lower than 20%) | 5 (Herbicidal ratio of 90% or more (almost completely withered)) | 3 (Herbicidal ratio of 40% or higher and lower than 70%) | 0 (Herbicidal ratio of 5% or lower (almost no effect)) | 1 (Herbicidal ratio of 5% or higher and lower than 20%) | 5 (Herbicidal ratio of 90% or more (almost completely withered)) | 0 (Herbicidal ratio of 5% or lower (almost no effect)) | 5 (Herbicidal ratio of 90% or more (almost completely withered)) | 5 (Herbicidal ratio of 90% or more (almost completely withered)) | 5 (Herbicidal ratio of 90% or more (almost completely withered)) | 3 (Herbicidal ratio of 40% or higher and lower than 70%) | 0 (Herbicidal ratio of 5% or lower (almost no effect)) | 5 (Herbicidal ratio of 90% or more (almost completely withered)) |  |
| CC#Cc1cc(C)c(C2=C(OC(=O)COc3ccccc3)CC(CC(C)=NOCC(F)(F)F)C2=O)c(C)c1 (stereo not drawn) [9-013] | 5 (Herbicidal ratio of 90% or more (almost completely withered)) | 4 (Herbicidal ratio of 70% or higher and lower than 90%) | 5 (Herbicidal ratio of 90% or more (almost completely withered)) | 5 (Herbicidal ratio of 90% or more (almost completely withered)) | 5 (Herbicidal ratio of 90% or more (almost completely withered)) | 4 (Herbicidal ratio of 70% or higher and lower than 90%) | 5 (Herbicidal ratio of 90% or more (almost completely withered)) | 0 (Herbicidal ratio of 5% or lower (almost no effect)) | 0 (Herbicidal ratio of 5% or lower (almost no effect)) | 5 (Herbicidal ratio of 90% or more (almost completely withered)) | 5 (Herbicidal ratio of 90% or more (almost completely withered)) | 4 (Herbicidal ratio of 70% or higher and lower than 90%) | 5 (Herbicidal ratio of 90% or more (almost completely withered)) | 5 (Herbicidal ratio of 90% or more (almost completely withered)) | 5 (Herbicidal ratio of 90% or more (almost completely withered)) | 5 (Herbicidal ratio of 90% or more (almost completely withered)) | 0 (Herbicidal ratio of 5% or lower (almost no effect)) | 5 (Herbicidal ratio of 90% or more (almost completely withered)) |  |
